Results as given in ChEMBL document CHEMBL5113476, “The protective effects of natural product tunicatachalcone against neuroinflammation via targeting RIPK2 in microglia BV-2 cells stimulated by LPS” (Bioorg Med Chem, 2022).
pKd: −log10 of the molar value. The source made the active and inactive calls. The calls are words filed in the database; no cut-off is given here.

Columns and labels:
BV-2 [1] = assay: Cytotoxicity against mouse BV-2 cells at 12.5 to 50 uM measured after 24 hrs by MTT assay; assay type: toxicity, cell-based; details: bv-2, 24 h, dose 12.5-50 µM
BV-2 [2] = assay: Anti-neuroinflammatory activity in mouse BV-2 cells assessed as inhibition of LPS-induced NO production at 5 to 20 uM measured after 24 hrs; assay type: functional, cell-based; details: dose 5-20 µM, DDE = dose-dependent effect
BV-2 [3] = assay: Anti-neuroinflammatory activity in mouse BV-2 cells assessed as reduction in LPS-stimulated IL-6 production at 5 to 20 uM measured after 8 hrs by ELISA; assay type: functional, cell-based; details: dose 5-20 µM, DDE = dose-dependent effect
BV-2 [4] = assay: Anti-neuroinflammatory activity in mouse BV-2 cells assessed as reduction in LPS-stimulated TNF-alpha production at 5 to 20 uM measured after 4 hrs by ELISA; assay type: functional, cell-based; details: dose 5-20 µM, DDE = dose-dependent effect
[5] = target: T1, Receptor-interacting serine/threonine-protein kinase 2 (Homo sapiens, UniProt O43353); assay: Binding affinity to recombinant RIPK2 (unknown origin) measured by surface plasmon resonance analysis
[6] = target: T1, Receptor-interacting serine/threonine-protein kinase 2; assay: Binding affinity to recombinant RIPK2 (unknown origin) measured by microscale thermophoresis (MST) assay
[7] = target: Receptor-interacting serine/threonine-protein kinase 2 (Mus musculus) (UniProt P58801); assay: Binding affinity to RIPK2 in mouse BV-2 cells measured by Cellular thermal shift assay (CETSA); assay type: cell-based
Receptor-interacting serine/threonine-protein kinase 2 (Mus musculus), sequence (P58801 whole entry): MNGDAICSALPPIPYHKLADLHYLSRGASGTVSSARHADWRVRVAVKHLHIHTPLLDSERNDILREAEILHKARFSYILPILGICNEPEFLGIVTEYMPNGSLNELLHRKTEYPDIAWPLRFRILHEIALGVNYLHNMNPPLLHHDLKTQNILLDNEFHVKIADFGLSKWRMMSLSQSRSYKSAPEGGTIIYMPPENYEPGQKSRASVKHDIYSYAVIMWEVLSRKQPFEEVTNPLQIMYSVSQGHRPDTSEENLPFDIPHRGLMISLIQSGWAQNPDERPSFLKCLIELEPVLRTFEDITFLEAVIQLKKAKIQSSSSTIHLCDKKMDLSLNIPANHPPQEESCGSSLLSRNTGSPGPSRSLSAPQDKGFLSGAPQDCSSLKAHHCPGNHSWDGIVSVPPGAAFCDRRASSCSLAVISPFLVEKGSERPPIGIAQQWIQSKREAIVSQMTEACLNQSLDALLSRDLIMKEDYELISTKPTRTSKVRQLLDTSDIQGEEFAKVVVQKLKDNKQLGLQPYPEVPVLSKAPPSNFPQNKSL

T1 sequence (O43353 whole entry): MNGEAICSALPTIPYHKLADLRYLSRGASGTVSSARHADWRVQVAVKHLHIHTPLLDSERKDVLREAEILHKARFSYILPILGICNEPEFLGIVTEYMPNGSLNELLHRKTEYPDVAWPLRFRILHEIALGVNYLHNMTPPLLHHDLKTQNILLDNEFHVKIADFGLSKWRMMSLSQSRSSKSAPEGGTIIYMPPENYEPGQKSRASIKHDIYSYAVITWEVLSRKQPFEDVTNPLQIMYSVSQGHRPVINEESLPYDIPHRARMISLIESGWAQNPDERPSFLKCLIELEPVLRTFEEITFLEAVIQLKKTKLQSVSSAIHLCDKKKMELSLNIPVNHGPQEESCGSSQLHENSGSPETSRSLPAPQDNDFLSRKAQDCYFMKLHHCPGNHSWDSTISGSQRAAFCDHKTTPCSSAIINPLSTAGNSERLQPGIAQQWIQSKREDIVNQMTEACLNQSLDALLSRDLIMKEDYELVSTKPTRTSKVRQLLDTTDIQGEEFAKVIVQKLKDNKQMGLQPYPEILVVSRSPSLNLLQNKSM

pKd [5]: 5.27
pKd [6]: 6.00
Activity [7]: Active
Structure (SMILES): COC1=CC(=O)C(CC=C(C)C)(CC=C(C)C)C(=O)/C1=C(O)/C=C/c1ccccc1
Activity (BV-2 [1]): Non-Toxic
Activity (BV-2 [2]): Dde
Activity (BV-2 [3]): Dde
Activity (BV-2 [4]): Dde
